Reference: PubChem BioAssay AID2060898 (Molecular Pharmacology Branch, DTP, NCI, 2025)

Test system: 616215-338-R-J1-PDC complex spheroid viability
Test: Anticancer human tumor 616215-338-R-J1-PDC patient-derived colon adenocarcinoma cell line growth inhibition [RAS]
Conditions: for IC50: curve of first compound; for viability, T/C: stronger effect = lower value
From the text: RAS pathway inhibitors in Combinations in Complex Spheroids
A high-throughput screen of multi-cell type tumor spheroids was designed to identify active combinations of RAS pathway inhibitors and targeted small molecules. Complex spheroids include a stromal component modeled by human endothelial cells (HUVEC) and fibroblasts modeled by human mesenchymal stem cells (MSCs). The concentration ranges selected for each drug and investigational agent were based upon clinically achievable concentrations if the clinical Cmax of the agent was known.
Compounds. The drugs and investigational agents: abemaciclib (NSC768073), cobimetinib (NSC768068), divarasib (GDC6063, NSC841802), docetaxel (NSC628503), GDC-1971 (RLY-1971, NSC841576), gemcitabine (NSC613327), inavolisib (NSC800729), ipatasertib (NSC767898), KB-0742 (NSC834161), MRTX-1133 (NSC836407), osimertinib (NSC779217), RMC-4630 (NSC839698), RMC-6236 (NSC851965), RMC-6291 (NSC852671), Ro-3306 (NSC812927), sapanisertib (NSC764658), SN-38 (NSC673596), staurosporine (NSC755774), SY5609 (NSC837396), and tovorafenib (DAY101, NSC766906), were obtained from the National Cancer Institute (NCI) Developmental Therapeutics Program Chemical Repository. The FDA-approved anticancer drug set is available from the NCI Developmental Therapeutics Program. […] The stock solutions were prepared in dimethyl sulfoxide (DMSO, Sigma-Aldrich, St. Louis, MO, cat. D2650) at 800-fold the tested concentration and stored at -70 degrees C prior to their use. All drugs and investigational agents were tested over a range starting from a high concentration at or near the clinical Cmax and decreasing in half-log increments. If the clinical Cmax for an agent had not been determined, the highest concentration tested was 10 microM.
Cell Culture. All cells were maintained in an incubator at 37 degrees C and 5% CO2 with 95% humidity. The PDC lines were cultured according to standard operating procedures established by the NCI PDMR. All PDCs were thawed and cultured in Matrigel-coated flasks prepared with a working solution of 1X Ham's F-12 nutrient mix, without supplementation (Invitrogen, Waltham, MA, cat. 11765054), 100 U/mL penicillin-streptomycin (Invitrogen, cat. 15140122), and 2.5% Matrigel (Corning Inc., Corning, NY, cat. 354248) for the first three passages. The 362531-283-R-J2-PDC and 782815-120-R-J1-PDC lines were cultured in 6C/Colon 1B media, which includes advanced DMEM/F-12 (Thermo Fisher Scientific, cat. 12634028), 10 mM HEPES (Thermo Fisher Scientific, cat. 15630080), 1X GlutaMAX supplement (Thermo Fisher Scientific, cat. 35050061), 0.1 mg/mL primocin (InvivoGen, San Diego, CA, cat. ant-pm-2), 10% defined fetal bovine serum, heat inactivated (HyClone Laboratories Inc., Logan, UT, cat. SH30070.03HI), 50% L-WRN conditioned media (ATCC, cat. CRL-3276), 1.25 mM N-Acetyl-L-cysteine (Sigma-Aldrich, cat. A9165), 10 mM nicotinamide (Sigma-Aldrich, cat. N0636), 1X B-27 supplement (Thermo Fisher Scientific, cat. 17504044), 1X N-2 supplement (Thermo Fisher Scientific, cat. 17502048), 50 ng/mL human EGF (Thermo Fisher Scientific, cat. PHG0311), and 10 microM Y-27632 dihydrochloride (Tocris Bioscience, cat. 1254). The K12877-001-R-J1-PDC line was cultured in 6I media, which includes all 6C/Colon 1B media plus 10 ng/mL human FGF-10 (PeproTech, cat. 100-26), 1 ng/mL human FGF-2 (PeproTech, cat. 100-18B), 1 µM prostaglandin E2 (Tocris Bioscience, cat. 2296), […] hydrocortisone (Sigma-Aldrich, cat. H4001), and […] bovine insulin (Sigma-Aldrich, cat. I6634). The K86415-001-R-J1-PDC line was cultured in 6D media, which includes all 6C/Colon 1B media components minus the L-WRN conditioned media. The 485176-168-R4-J1-PDC was cultured in PANC media, which includes all 6C/Colon 1B media plus 100 ng/mL human FGF-10 (PeproTech, cat. 100-26), 500 nM SB-431542 (Selleckchem, cat. S1067), and 10 nM gastrin (Tocris Bioscience, cat. 3006). […]
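Also: spheroids exposed to agents for seven days before viability readout.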
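For viability, T/C in this document: 100% = DMSO vehicle control viability.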

## CC1(O)CCCC1n1c(=O)c(C(F)F)cc2cnc(NC3CCN(S(C)(=O)=O)CC3)nc21 (configuration not stated) + C#Cc1c(F)ccc2cc(O)cc(-c3ncc4c(N5CC6CCC(C5)N6)nc(OCC56CCCN5CC(F)C6)nc4c3F)c12
Second compound 0.0316 µM
  IC50: 1070 nM
Second compound 0.1 µM
  IC50: 924 nM
Second compound 0.316 µM
  IC50: 833 nM
Second compound 1 µM
  IC50: 255 nM
Second compound 3.16 µM
  IC50: 132 nM
Second compound 10 µM
  IC50: 44 nM
Second compound 0.0316 µM, first compound 0.0316 µM
  viability, T/C: 110%
Second compound 0.0316 µM, first compound 0.1 µM
  viability, T/C: 114%
Second compound 0.0316 µM, first compound 0.316 µM
  viability, T/C: 53.5%
Second compound 0.0316 µM, first compound 1 µM
  viability, T/C: 49.1%
Second compound 0.0316 µM, first compound 3.16 µM
  viability, T/C: 45.4%
Second compound 0.0316 µM, first compound 10 µM
  viability, T/C: 1.06%
Second compound 0.1 µM, first compound 0.0316 µM
  viability, T/C: 107%
Second compound 0.1 µM, first compound 0.1 µM
  viability, T/C: 118%
Second compound 0.1 µM, first compound 0.316 µM
  viability, T/C: 50.2%
Second compound 0.1 µM, first compound 1 µM
  viability, T/C: 46.8%
Second compound 0.1 µM, first compound 3.16 µM
  viability, T/C: 39.4%
Second compound 0.1 µM, first compound 10 µM
  viability, T/C: 0.75%
Second compound 0.316 µM, first compound 0.0316 µM
  viability, T/C: 117%
Second compound 0.316 µM, first compound 0.1 µM
  viability, T/C: 112%
Second compound 0.316 µM, first compound 0.316 µM
  viability, T/C: 54.5%
Second compound 0.316 µM, first compound 1 µM
  viability, T/C: 44%
Second compound 0.316 µM, first compound 3.16 µM
  viability, T/C: 37.9%
Second compound 0.316 µM, first compound 10 µM
  viability, T/C: 2.34%
Second compound 1 µM, first compound 0.0316 µM
  viability, T/C: 111%
Second compound 1 µM, first compound 0.1 µM
  viability, T/C: 94.2%
Second compound 1 µM, first compound 0.316 µM
  viability, T/C: 38.8%
Second compound 1 µM, first compound 1 µM
  viability, T/C: 45.9%
Second compound 1 µM, first compound 3.16 µM
  viability, T/C: 50.5%
Second compound 1 µM, first compound 10 µM
  viability, T/C: 0.81%
Second compound 3.16 µM, first compound 0.0316 µM
  viability, T/C: 90.4%
Second compound 3.16 µM, first compound 0.1 µM
  viability, T/C: 49.9%
Second compound 3.16 µM, first compound 0.316 µM
  viability, T/C: 29.8%
Second compound 3.16 µM, first compound 1 µM
  viability, T/C: 35.8%
Second compound 3.16 µM, first compound 3.16 µM
  viability, T/C: 31.4%
Second compound 3.16 µM, first compound 10 µM
  viability, T/C: 2.44%
Second compound 10 µM, first compound 0.0316 µM
  viability, T/C: 59.5%
Second compound 10 µM, first compound 0.1 µM
  viability, T/C: 23.7%
Second compound 10 µM, first compound 0.316 µM
  viability, T/C: 26.1%
Second compound 10 µM, first compound 1 µM
  viability, T/C: 22.2%
Second compound 10 µM, first compound 3.16 µM
  viability, T/C: 21.8%
Second compound 10 µM, first compound 10 µM
  viability, T/C: 1.18%
